pEC50: −log10 of the molar value. ≈ marks a conversion by molar mass, not a printed value. Like-named read-outs stand apart in the source and are kept apart here.
Tests used:
Human PPARδ LBD = target: T1, Human PPARδ LBD (Homo sapiens, UniProt Q03181); assay: PPARδ activity screen (GAL4-PPARδ LBD luciferase transactivation in CV-1 cells); type: cell-based; conditions: for pEC50: read-out: EC50
T1 construct: (PPARδ amino acid 128 to C-terminus); expressed in transfected cells; host or cells: CV-1 cells
T1 sequence (Q03181 128-441 limits assumed): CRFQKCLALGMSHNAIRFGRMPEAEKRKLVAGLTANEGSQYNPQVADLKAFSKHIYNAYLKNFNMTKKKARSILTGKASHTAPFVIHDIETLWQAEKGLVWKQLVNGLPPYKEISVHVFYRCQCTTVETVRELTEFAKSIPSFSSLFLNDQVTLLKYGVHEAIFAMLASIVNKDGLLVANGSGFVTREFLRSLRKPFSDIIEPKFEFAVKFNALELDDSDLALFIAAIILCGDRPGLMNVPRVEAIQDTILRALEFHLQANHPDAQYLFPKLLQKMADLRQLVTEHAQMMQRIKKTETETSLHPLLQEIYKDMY
Method: Cell Culture and Transfection: CV-1 cells were grown in DMEM+10% charcoal stripped FCS. Cells were seeded into 384-well plates the day before transfection to give a confluency of 50-80% at transfection. A total of […] containing 0.64 micrograms pCMX-PPARDelta LBD, 0.1 micrograms pCMXβGal, 0.08 micrograms pGLMH2004 reporter and 0.02 micrograms pCMX empty vector was transfected per well using FuGene transfection reagent according to the manufacturer's instructions (Roche).
Plasmids: Human PPARδ was used to PCR amplify the PPARδ LBD. […] Ensuing fusions were verified by sequencing.
Compounds: All compounds were dissolved in DMSO and diluted 1:1000 upon addition to the cells. Compounds were tested in quadruple in concentrations ranging from 0.001 to 100 μM. […] Each compound was tested in at least two separate experiments.
Luciferase assay: Medium including test compound was aspirated and washed with PBS. 50 μl PBS including 1 mM Mg++ and Ca++ were then added to each well. The luciferase assay was performed using the LucLite kit according to the manufacturer's instructions (Packard Instruments). Light emission was quantified by counting on a Perkin Elmer Envision reader. […] Beta-galactosidase assays were performed in the microwell plates using a kit from Promega and read in a Perkin Elmer Envision reader. The beta-galactosidase data were used to normalize (transfection efficiency, cell growth etc.) the luciferase data.
Statistical Methods: The activity of a compound is calculated as fold induction compared to an untreated sample. […] EC50 values were calculated via non-linear regression using GraphPad PRISM (GraphPad Software, San Diego, Calif.).

PPARδ = target: T2, PPARδ (Homo sapiens, UniProt Q03181); assay: Nuclear Hormone Receptor (NHR) protein interaction assay (PathHunter), agonist format; type: cell-based; conditions: for EC50: PathHunter NHR cell line, agonist format, read-out: NHR protein interaction assay, EC50 (nM) for PPARδ
T2 construct: expressed in transfected cells; host or cells: PathHunter NHR cell lines
T2 sequence (Q03181 1-441): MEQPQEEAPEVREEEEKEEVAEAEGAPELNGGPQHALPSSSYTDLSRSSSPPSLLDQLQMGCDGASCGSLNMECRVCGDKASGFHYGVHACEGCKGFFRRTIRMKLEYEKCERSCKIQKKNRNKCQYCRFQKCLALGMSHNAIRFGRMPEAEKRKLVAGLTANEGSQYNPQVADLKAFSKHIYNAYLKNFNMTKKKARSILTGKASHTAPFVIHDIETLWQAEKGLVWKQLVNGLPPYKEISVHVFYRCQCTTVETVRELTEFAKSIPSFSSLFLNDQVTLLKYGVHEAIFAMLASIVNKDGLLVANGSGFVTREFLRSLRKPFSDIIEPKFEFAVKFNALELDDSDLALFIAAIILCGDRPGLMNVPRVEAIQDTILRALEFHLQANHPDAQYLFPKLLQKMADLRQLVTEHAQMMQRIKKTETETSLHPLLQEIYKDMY
Method: • Cell Handling: PathHunter NHR cell lines were expanded from freezer stocks according to standard procedures. Cells were seeded in a total volume of 20 μL into white walled, 384-well microplates and incubated at 37° C. for the appropriate time prior to testing. Assay media contained charcoal-dextran filtered serum to reduce the level of hormones present. • Agonist Format: For agonist determination, cells were incubated with sample to induce response. Intermediate dilution of sample stocks was performed to generate 5× sample in assay buffer. 5 μL of 5× sample was added to cells and incubated at 37° C. or room temperature for 3-16 hours. Final assay vehicle concentration was 1%. • Antagonist Format: For antagonist determination, cells were pre-incubated with antagonist followed by agonist challenge at the EC80 concentration. Intermediate dilution of sample stocks was performed to generate 5× sample in assay buffer. 5 μL of 5× sample was added to cells and incubated at 37° C. or room temperature for 60 minutes. Vehicle concentration was 1%. […] Microplates were read following signal generation with a PerkinElmer Envision™ instrument for chemiluminescent signal detection. • Data Analysis: Compound activity was analyzed using CBIS data analysis suite (ChemInnovation, CA). For agonist mode assays, percentage activity was calculated using the following formula: % Activity=100%×(mean RLU of test sample−mean RLU of vehicle control)/(mean MAX control ligand−mean RLU of vehicle control).
For antagonist mode assays, percentage inhibition was calculated using the following formula: % Inhibition=100%×(1−(mean RLU of test sample−mean RLU of vehicle control)/(mean RLU of EC80 control−mean RLU of vehicle control)). Note that for select assays, the ligand response produces a decrease in receptor activity (inverse agonist with a constitutively active target). For those assays inverse agonist activity was calculated using the following formula: % Inverse Agonist Activity=100%×((mean RLU of vehicle control−mean RLU of test sample)/(mean RLU of vehicle control−mean RLU of MAX control)).

% Parent remained in HLM = type: in vitro ADME
[1] = Solubility (kinetic, thermodynamic); type: physicochemical
[2] = type: in vitro ADME; conditions: MLM
[3] = Pharmacokinetics in male CD-1 mice (i.v. and p.o.); type: in vivo; conditions: CD-1 mice; for Vd: CD-1, mouse, 3 mg/kg
Method: The oral bioavailability and serum half lives of PPARδ ligands were compared in mice. The pharmacokinetics of PPARδ ligands delivered orally (10 mg/kg p.o.) and intravenously (3 mg·kg i.v.) were determined by mass spectrometry.
In this example, the PK profile of several PPARδ agonists disclosed herein in male CD-1 mice or Wistar rats was determined. Similar methods can be used to analyze other compounds provided herein.
(quantity sufficient ie made up to a final volume of 100% with water). All compounds were separately administered to CD-1 mice at 3 mg/kg iv or 10 mg/kg po.
The concentration of the compound in plasma was determined, as illustrated in FIGS. 9A-9E.

AKO mice = assay: GW treatment in mouse model of ALD (AKO mice), fatty acid analysis by GC/MS and gene expression; type: in vivo
Text: ALD is a rare genetic disorder caused by defects in peroxisomal oxidation of very long-chain fatty acids (VLCFAs), resulting in systemic accumulation of VLCFAs, which causes tissue defects mainly in the central nervous system and the adrenal glands. The majority of VLCFAs in the body are endogenously synthesized from long-chain fatty acids (LCFAs). Therefore, one potential way to prevent VLCFA accumulation in ALD is by inducing mitochondrial LCFA oxidation to reduce the availability of LCFAs for VLCFA biosynthesis. In order to test this, a previously described mouse model of ALD was used, in which the X-linked adrenoleukodystrophy gene abcdl was systemically ablated and the knockout (AKO) mice faithfully recapitulated the abnormal VLCFA accumulation phenotype seen in ALD patients.
3-month-old AKO mice were treated with or without GW and their tissues collected for free FA analysis using GC/MS.

[4] = EC50 nM, Table 1, CV-1 cells, GAL4-PPARδ LBD luciferase reporter, compound 24 h
[5] = PPARd, EC50 (nM) (from Salk), Table 15
[6] = male, mouse, iv, 3 mg/Kg i.v., plasma
[7] = male, mouse, po, 10 mg/Kg p.o., plasma
[8] = Table 1, CV-1 cells, GAL4-PPARδ LBD luciferase reporter, compound 24 h
[9] = Table 15, read-out: PPARd, EC50 (nM) (from Salk)

SMILES: CC(C)N(Cc1ccccc1OCCCCCC(=O)O)C(=O)c1ccc(-c2ccccc2)cc1 [compound 57]
- EC50 (Human PPARδ LBD; [4]): 60 nM
- EC50 (Human PPARδ LBD; [5]): 42 nM
- pEC50 (PPARδ): 7.59

SMILES: O=C(O)CCCCCOc1ccccc1CN(C(=O)c1ccc(-c2ccco2)cc1)C1CC1 [compound 12]
- % Parent remained at 15 min, HLM (% Parent remained in HLM; 15 min): 92%
- % Parent remained at 60 min, HLM (% Parent remained in HLM; 60 min): 64%
- solubility kinetic ([1]; kinetic from dmso stock): 6 µM (≈ 2.69 µg/mL)
- solubility thermodynamic ([1]; thermodynamic from solid): 253 µM (≈ 113 µg/mL)
- % Parent remained at 15 min, MLM ([2]; 15 min): 59%
- % Parent remained at 60 min, MLM ([2]; 60 min): 19%
- Cl ([3]; 3 mg/Kg i.v., plasma): 194.938 mL/min/kg
- Kel ([3]; 3 mg/Kg i.v., plasma): 3.85 h⁻¹
- F ([3]; 10 mg/Kg p.o. vs 3 mg/Kg i.v.): ~22%
- Vd ([3]; male, plasma, iv, 3 mg/Kg i.v., plasma, read-out: Vss): 1.58 L/kg
- Vd ([3]; male, plasma, iv, 3 mg/Kg i.v., plasma, read-out: Vz): 3.03 L/kg
- AUC(0-inf) [3, 6]: 256 ng·h/mL
- C0 [3, 6]: 1940 ng/mL
- MRT [3, 6]: 7.2 min
- half-life ([3]; male, mouse, iv, 3 mg/Kg i.v., plasma, read-out: Beta T1/2 (converted)): 10.8 min
- AUC(0-inf) [3, 7]: 187 ng·h/mL
- Cmax [3, 7]: 129 ng/mL
- Tmax [3, 7]: 30 min
- half-life ([3]; male, mouse, po, 10 mg/Kg p.o., plasma, read-out: T1/2 (converted)): 156 min

SMILES: CC(C)N(Cc1ccccc1OCCCCCC(=O)O)C(=O)c1ccc(-c2ccoc2)cc1 [compound 62]
- pEC50 (Human PPARδ LBD; [8]): 7.21
- EC50 (Human PPARδ LBD; [9]): 61 nM
- EC50 (PPARδ): 36.8 nM

SMILES: CC(C)N(Cc1ccccc1OCCCCCC(=O)O)C(=O)c1ccc(-c2cccs2)cc1 [compound 63]
- pEC50 (PPARδ): 8.08

SMILES: Cc1cc(SCc2sc(-c3ccc(C(F)(F)F)cc3)nc2C)ccc1OCC(=O)O [GW]
- levels of VLCFAs (C22:0, C23:0, C24:0, C26:0) in AKO brain and liver (AKO mice; 8 weeks of GW treatment, 3-month-old AKO mice): significantly reduced
- liver C26:0 (AKO mice; 8 weeks of GW treatment, most GW-treated animals): cleared
- most saturated LCFAs (C12:0 to C22:0) and total FAs (AKO mice; AKO liver and muscle): significantly reduced
- expression of mitochondrial FA oxidation genes (Cptla and lb, Slc25a20, Acadl) (AKO mice; AKO liver and skeletal muscle): dramatically induced

SMILES: CCC(C)N(Cc1ccccc1OCCCCCC(=O)O)C(=O)c1ccc(-c2ccco2)cc1 (stereo not drawn) [compound 37]
- EC50 (Human PPARδ LBD; [4]): 41 nM
- EC50 (Human PPARδ LBD; [5]): 41 nM
- pEC50 (PPARδ): 7.76

SMILES: CC(C)N(Cc1ccccc1OCCCCCC(=O)O)C(=O)c1ccc(-c2ccco2)cc1 [compound 61]
- pEC50 (Human PPARδ LBD; [8]): 8.05
- EC50 (Human PPARδ LBD; [9]): 9 nM
- EC50 (PPARδ): 5.9 nM

SMILES: CC(C)N(Cc1ccccc1OCCCCCC(=O)O)C(=O)c1ccc(-c2ccsc2)cc1 [compound 64]
- pEC50 (Human PPARδ LBD; [8]): 7.76
- EC50 (Human PPARδ LBD; [9]): 17.2 nM
- EC50 (PPARδ): 8.02 nM

— patent US10035819B2, “PPAR agonists and methods of use thereof” (The Salk Institute for Biological Studies, priority 2014, dated 2018)
